Test systems include PC-3; SF-295; SK-OV-3; EKVX; MDA-N; 786-0; OVCAR-3; MDA-MB-435; OVCAR-4; HT-29; K562; LOX IMVI; A549; UO-31; HOP-92; COLO 205; HCT-116; HCT-15; NCI-H460; SF-539.
Holding throughout (assay): NCI anticancer screen, dose series, 48 h

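Exposure lasted 48 hours, with cells grown in 96-well plates and compounds tested at five concentrations. Abbreviation: GI50, concentration required for 50% inhibition of growth.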 Activity calls are given as the source filed them. No stated cut-off is given here; in the data, active = GI50 up to about 1.1 µM and inactive = higher.

In the case of `O=C1/C(=C/c2cccs2)NC(=S)N1CN1CCCC(CO)C1` (stereo not drawn), the GI50 is > 100 µM (inactive) in the test on PC-3; 91.4 µM (inactive) in the test with SF-295; > 100 µM (inactive) in the test on SK-OV-3; > 100 µM (inactive) in the test with EKVX; > 100 µM (inactive) with MDA-N; > 100 µM (inactive) in the test on 786-0. Moreover, the GI50 in the test with OVCAR-3, in the test with MDA-MB-435, in the test with OVCAR-4, in the test on HT-29, with K562 and in the test on LOX IMVI was > 100 µM (inactive) each time. In addition, the GI50 is > 100 µM (inactive) in the test with A549; > 100 µM (inactive) in the test on UO-31; > 100 µM (inactive) in the test with HOP-92; > 100 µM (inactive) in the test with COLO 205; > 100 µM (inactive) with HCT-116; more than 100 µM in the test on HCT-15.
For `CCCCCCCCCCOC1C(C(C)OCCCN(C)C)OC2OC3(CCCCC3)OC21` (stereo not drawn), the GI50 in the test on PC-3 is 12.4 µM (inactive); in the test on SF-295, 17.5 µM (inactive); in the test with SK-OV-3, 18.5 µM (inactive); in the test with EKVX, 18.2 µM (inactive); in the test with MDA-N it was 4.94 µM (inactive); with 786-0, 16.5 µM (inactive). Also, the GI50 with OVCAR-3 was 14.7 µM (inactive); with MDA-MB-435, 16.2 µM (inactive); in the test with OVCAR-4, 13.6 µM (inactive); with NCI-H460, 3.08 µM (inactive); in the test on HT-29, 2.41 µM (inactive); in the test with K562, 3.47 µM (inactive). The GI50 with LOX IMVI was 1.93 µM (inactive); with A549 it was 15.4 µM (inactive); in the test with UO-31, 17.9 µM (inactive); in the test with HOP-92, 3.4 µM (inactive); in the test on COLO 205, 3.48 µM (inactive); in the test on HCT-116 it was 13.4 µM (inactive). Also, the GI50 in the test on HCT-15 was 1.36 µM.
For `CCCC(=O)N1CCN(c2ccc3c(c2)OC(C)O3)CC1` (stereo not drawn), the GI50 with PC-3, with SF-295, in the test with SK-OV-3, in the test with EKVX, in the test on MDA-N and in the test with 786-0 was > 100 µM (inactive) throughout. Besides, the GI50 in the test on OVCAR-3, in the test on MDA-MB-435, with OVCAR-4, in the test with NCI-H460, in the test with HT-29 and in the test with K562 was > 100 µM (inactive) each time. The GI50 was > 100 µM (inactive) in the test with A549; > 100 µM (inactive) with UO-31; > 100 µM (inactive) in the test on HOP-92; > 100 µM (inactive) in the test with COLO 205; > 100 µM (inactive) in the test on HCT-116; more than 100 µM in the test on HCT-15. Besides, the GI50 in the test on SF-539 is > 100 µM (inactive).
In the case of `Cc1cc(C)n(C2OC(CO)C(O)C(O)C2O)c(=S)c1C#N` (stereo not drawn), the GI50 in the test on PC-3, in the test with SF-295, in the test on MDA-N, with 786-0, with OVCAR-3 and in the test with MDA-MB-435 was > 100 µM (inactive) each time. For the same compound, the GI50 in the test on OVCAR-4 was > 100 µM (inactive); with NCI-H460, > 100 µM (inactive); in the test on HT-29, > 100 µM (inactive); with K562 it was > 10 µM (inactive); with LOX IMVI it was > 100 µM (inactive); with A549 it was > 100 µM (inactive). Also, the GI50 in the test with UO-31 is > 100 µM (inactive); in the test with HOP-92, > 100 µM (inactive); with COLO 205, > 100 µM (inactive); in the test with HCT-116, > 100 µM (inactive); in the test on HCT-15, more than 100 µM; with SF-539 it was > 100 µM (inactive).
`Cc1ccc(/C=N/n2c(=O)[nH]c3ccccc3c2=O)cc1`: the GI50 in the test on PC-3, with SF-295, with SK-OV-3, with EKVX, with MDA-N and in the test with 786-0 was > 100 µM (inactive) each time. In addition, the GI50 in the test with OVCAR-3, in the test with MDA-MB-435, in the test on NCI-H460, in the test with HT-29, in the test on K562 and in the test with LOX IMVI was > 100 µM (inactive) each time. Also, the GI50 with A549 is > 100 µM (inactive); with UO-31 it was > 100 µM (inactive); in the test on HOP-92, > 100 µM (inactive); in the test with COLO 205, > 100 µM (inactive); with HCT-116, > 100 µM (inactive); in the test with HCT-15, more than 100 µM. Besides, the GI50 in the test on SF-539 was > 100 µM (inactive).
In the case of `Cc1c(C)c2c(c(N)c1C#N)C(=O)N(NC(=S)Nc1ccccc1)C2=O`, the GI50 is > 100 µM (inactive) in the test with PC-3; 60.8 µM (inactive) in the test on SF-295; > 100 µM (inactive) in the test with SK-OV-3; > 100 µM (inactive) in the test with EKVX; > 100 µM (inactive) in the test on MDA-N; 44.1 µM (inactive) in the test with 786-0. Further, the GI50 in the test with OVCAR-3 is > 100 µM (inactive); with MDA-MB-435, > 100 µM (inactive); in the test with OVCAR-4, > 100 µM (inactive); in the test on NCI-H460, 61.2 µM (inactive); in the test on HT-29, 60.1 µM (inactive); with K562, > 100 µM (inactive). Further, the GI50 in the test on A549 was > 100 µM (inactive); in the test on UO-31 it was 44.4 µM (inactive); with HOP-92 it was > 100 µM (inactive); in the test with COLO 205 it was 79.4 µM (inactive); in the test on HCT-116, 52.6 µM (inactive); with HCT-15, 67.8 µM. For the same compound, in the test with SF-539, the GI50 is 49.8 µM (inactive).
As to `O=C(N/N=C\c1ccc([N+](=O)[O-])s1)c1ccncc1`, the GI50 in the test on PC-3 was 11.6 µM (inactive); in the test on SF-295, 16.4 µM (inactive); in the test on SK-OV-3, 38.5 µM (inactive); with EKVX it was 20.7 µM (inactive); with MDA-N it was 14.1 µM (inactive); in the test on 786-0, 6.67 µM (inactive). The GI50 was 2.82 µM (inactive) in the test with OVCAR-3; 18.4 µM (inactive) in the test with MDA-MB-435; 15 µM (inactive) in the test on OVCAR-4; 6.65 µM (inactive) in the test with NCI-H460; 4.13 µM (inactive) with HT-29; > 10 µM (inactive) with K562. Also, the GI50 is 16.7 µM (inactive) in the test on A549; 17.2 µM (inactive) in the test with UO-31; 15.6 µM (inactive) in the test on HOP-92; 2.13 µM (inactive) with COLO 205; 5.07 µM (inactive) in the test on HCT-116; 5.27 µM in the test on HCT-15. For the same compound, in the test with SF-539, the GI50 is 6.28 µM (inactive).
Take `Cc1c2cnccc2c(C)c2c1c1ccccc1n2CCCN`: the GI50 in the test with PC-3 is 0.121 µM (active); in the test with SK-OV-3 it was 0.74 µM (active); with EKVX it was 0.525 µM (active); in the test on MDA-N it was 0.226 µM (active); with 786-0 it was 0.0667 µM (active); in the test with MDA-MB-435 it was 0.129 µM (active). The GI50 was 0.14 µM (active) with OVCAR-4; 0.206 µM (active) in the test on HT-29; 0.138 µM (active) in the test on K562; 0.109 µM (active) in the test on LOX IMVI; 0.408 µM (active) in the test on A549; 0.83 µM (active) with UO-31. Besides, the GI50 in the test with HOP-92 is 0.281 µM (active); in the test with COLO 205 it was 0.222 µM (active); in the test on HCT-116, 0.0929 µM (active); in the test with HCT-15 it was 0.169 µM; in the test on SF-539, 0.582 µM (active).
